Data: PMC11554305, “Functional identification of soluble uric acid as an endogenous inhibitor of CD38” (eLife, 2024)

Columns and labels:
WT BMDMs = assay: Intracellular NAD+ in primed WT BMDMs treated with NMN; assay type: cell-based, mouse; settings: sUA 100, 200 and 500 μM; NMN 100 μM, 6 hr
Protocol: Bone marrow cells were isolated from 10- to 12-week-old WT or CD38 KO mice (both male and female) by washing the marrow cavity with sterile PBS. The collected bone marrow cells were filtered by 70 μm strainers and then centrifuged at 1000 rpm, 4°C for 5 min. The cell pellet was resuspended in 2 mL red blood cell (RBC) lysis buffer for 30 s, then 8 mL complete RPMI-1640 medium (10% FBS, 1% penicillin/streptomycin, and 50 μM 2-mercaptoethanol) was added to terminate the lysis. After 5 min centrifugation at 1000 rpm, 4°C, the cells were resuspended in fresh complete RPMI-1640 medium and maintained for 4 hr in an incubator. Adherent cells were discarded, whereas non-adherent cells were cultured in complete RPMI-1640 medium containing 20 ng/mL M-CSF. After 3-day differentiation, the medium was replaced with fresh complete RPMI-1640 medium containing 20 ng/mL M-CSF. On the 7th day, BMDMs were collected for subsequent experiments. BMDMs were primed with 100 ng/mL ultrapure LPS for 4 hr for canonical inflammasome assay. For metabolic assay of NMN, BMDMs were primed with 100 ng/mL ultrapure LPS for 8 hr to induce higher protein expression of CD38.
WT BMDMs were primed with 100 ng/mL ultrapure LPS for 8 hr. Then, the cells were washed twice with sterile PBS. Afterward, the cells were incubated in control or 100 μM NMN-supplemented RPMI-1640 medium in the presence of sUA or 78c. […]

CD38 = target: T1, CD38 (Homo sapiens, UniProt P28907); assay: Hydrolase activity of THP-1 cells; assay type: biochemical; settings: sUA 0–500 μM, Figure 1—figure supplement 1A
T1 construct: cells or tissues were directly homogenized in blank reaction buffer on ice; host or cells: THP-1
T1 sequence (P28907 1-300): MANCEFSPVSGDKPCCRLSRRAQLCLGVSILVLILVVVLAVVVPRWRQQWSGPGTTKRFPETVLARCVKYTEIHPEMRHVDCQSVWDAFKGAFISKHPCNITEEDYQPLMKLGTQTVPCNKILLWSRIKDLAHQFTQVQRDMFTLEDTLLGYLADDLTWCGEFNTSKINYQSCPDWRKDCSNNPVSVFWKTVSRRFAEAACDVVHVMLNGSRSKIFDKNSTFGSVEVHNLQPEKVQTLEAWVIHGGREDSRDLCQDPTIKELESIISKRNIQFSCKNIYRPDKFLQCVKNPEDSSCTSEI
Protocol: The hydrolase activity of CD38 was measured according to a previous report ([de Oliveira et al., 2018]) with minor modifications. CD38 hydrolase activity was measured using 50 μM ε-NAD^+ as a substrate in hydrolase reaction buffer (250 mM sucrose, 40 mM Tris-HCl, pH 7.4). Briefly, cells or tissues were directly homogenized in blank reaction buffer on ice, and recombinant hCD38 was diluted in blank reaction buffer for subsequent assays. The tissue homogenates were centrifuged to collect the supernatant for enzyme assays. The loading volume of enzyme was 4–30 μL, the total volume of the reaction system was 3 mL. To detect enzyme inhibition, except when specified, the ligands were directly dissolved in hydrolase reaction buffer before pH adjustment, after which, the pH was immediately adjusted to 7.4. All reaction buffers, with or without ligands, were freshly prepared before each assay. For measurement of hydrolase activity, 3 mL reaction buffer containing enzyme, ε-NAD^+, and ligands at indicated concentrations was maintained at 37°C with constant stirring.
The reaction buffer for hydrolase or cyclase assays was excited at 300 nm, and fluorescence emission was measured every second at 410 nm by Shimazu RF-6000 spectrofluorometer. Hydrolase or cyclase activity was calculated from the linear portion of the time course by fitting a linear function to the data points recorded within 5 min.

recombinant hCD38 = target: T2, recombinant hCD38 (Homo sapiens, UniProt P28907); assay: Metabolic assay of NMN (degradation by recombinant hCD38); assay type: biochemical; settings: NMN 200 μM, hCD38 20 ng/mL, 6 hr
T2 construct: the commercial recombinant hCD38 without a transmembrane region was partially used in this study; purchased Sino Biological 10818-H08H
T2 sequence (P28907 43-300 limits assumed): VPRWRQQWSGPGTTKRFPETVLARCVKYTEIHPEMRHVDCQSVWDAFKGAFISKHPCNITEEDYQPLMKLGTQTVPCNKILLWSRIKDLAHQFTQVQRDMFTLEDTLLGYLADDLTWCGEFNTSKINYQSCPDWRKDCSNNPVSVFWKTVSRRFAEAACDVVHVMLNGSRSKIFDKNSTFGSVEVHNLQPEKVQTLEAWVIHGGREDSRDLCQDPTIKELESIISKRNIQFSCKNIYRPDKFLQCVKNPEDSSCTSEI
Protocol: To prepare the reaction buffer, sUA was directly dissolved in blank RPMI-1640 medium by addition of NaOH, and the pH was immediately adjusted by HCl. After pH adjustment, the medium containing sUA was filtered by 0.2 μm filter and diluted as indicated. The medium containing 20 ng/mL recombinant hCD38 was then placed in a cell incubator. The reaction was started with the addition of NMN (final concentration was 200 μM). After incubation for 6 hr, 20 μL medium was transferred into 180 μL 5% ice-cold PCA, then vortexed for 30 s and centrifuged at 15,000 rpm, 4°C for 10 min. The supernatant was stored at –80°C until further handling for NMN measurement (see LC-MS/MS analysis).
As mentioned above, samples (cells, tissues, blood, or reaction buffer) were treated with ice-cold PCA, after extraction and centrifugation, the collected supernatant was appropriately diluted in 5% ice-cold PCA when applicable, and then was vortexed for 30 s and centrifuged at 15,000 rpm, 4°C for 5 min. […] All the samples after handling were immediately analyzed in this study without freezing and thawing.
The LC-MS/MS system consisted of a triple quadrupole LCMS-8050 (Shimadzu) and an LC-30A system (Shimadzu). […] NAD^+ and NMN were measured independently in this study, as their peaks were hardly separated within a short time.

O=c1[nH]c(=O)c2[nH]c(=O)[nH]c2[nH]1 [sUA, uric acid]
Intracellular NAD+ in primed WT BMDMs treated with NMN (WT BMDMs): failed to boost intracellular NAD^+
Ki (CD38): 75.5 µM
NMN degradation by recombinant hCD38 (recombinant hCD38): directly inhibited NMN degradation
